Measured values as given in patent US8148392B2, “2-indolyl imidazo [4,5-d] phenanthroline derivatives and their use in the treatment of cancer” (Lorus Therapeutics Inc., priority 2005, dated 2012).
pIC50: −log10 of the molar value. Like-named read-outs stand apart in the source and are kept apart here.

Assays:
[1] = test system: human colon carcinoma HT-29 cells; assay: XTT cell proliferation assay, HT-29; assay type: cell-based; conditions: HT-29, XTT; for IC50: as Example 13, Table 7; for pIC50: 6-7 days, Table 3
Procedure: The ability of compounds of Formula I to inhibit the proliferation of human colon carcinoma HT-29 cells was tested as follows. HT-29 colon carcinoma cells used in this example and subsequent examples were maintained as a monolayer in a growth medium; McCoy's 5A modified medium (Sigma, St. Louis, Mo.), supplemented with 2 mM L-glutamine (Gibco, Grand Island, N.Y.), 10% fetal bovine serum (FBS) (Multicell, WISENT Inc. St-Bruno, QC), antibiotic-antimycotic (Multicell), at 37° C. in a 5% CO2-humidified incubator. Cells were transferred onto 150 mm tissue culture plates and grown until sub-confluency (70-80%) prior to their use. The in vitro antiproliferative activity of compounds was evaluated by incubating the cells with varying concentrations of the compounds as shown in Table 1 for 6-7 days. The efficacy of these compounds in this cell proliferation assay was measured based in the ability of live cells to reduce the tetrazolium salt XTT to orange colored compounds of formazan (XTT cell proliferation kit II, Roche Applied Science, Montreal, QC).
The ability of compounds of Formula I to inhibit the proliferation of human colon carcinoma HT-29 cells was tested as described above in Example 13.
Cell growth inhibition IC50 (μM) by compounds of Formula I was tested on various cancer cell types by XTT cell proliferation assay. The growth inhibitory effects of the compounds of Formula I as shown below for the melanoma cell line SK-MEL-2 were reproducible by Lorus Therapeutics Inc.

supercoiled plasmid DNA = assay: In vitro DNA cleavage assay; assay type: biochemical
Procedure: Compound 3 was tested for its ability to cleave plasmid DNA in vitro in the presence of copper and the reducing agent ascorbic acid. Experiments were performed in a total of 20 μl, containing 10 mM NaH2PO4/Na2HPO4 buffer (pH 6.7), 1 μg of supercoiled plasmid DNA, 100 μM ascorbic acid, 25 μM drug compound (or vehicle), and 10 μM of CuSO4.5H20. The reaction mixture was incubated at 37° C. for 30 minutes, and 1 μl of 0.1 M EDTA was added to terminate the reaction. DNA loading buffer was added, and reactions were run at 80V for 80 minutes on a 1% agarose gel containing ethidium bromide.
To determine whether ions other than copper could suffice, DNA cleavage reactions were also carried out in the presence of zinc or iron. Reactions were performed as above, in the presence of 25 μM of CuSO4.5H20, ZnCl2, or FeCl2.4H20. […] Note that copper alone in the presence of ascorbic acid can shift the ratio of supercoiled DNA to open circular DNA.
To determine the ratios of compound to copper at which compound 3 was effective, reactions were performed as in FIG. 22A. The ratios of compound 3 to copper of 3:1, 2.5:1, 2:1, 1.5:1, and 1:1, as shown in FIG. 23 were achieved by maintaining the concentration of Cu constant at 10 μM, and varying the concentration of compound 3. The ratios of compound 3 to Cu of 1:1.5, 1:2, 1:2.5, and 1:3, were achieved by maintaining the concentration of compound 3 constant at 10 μM, and varying the concentration of copper.
Other compounds of Formula I, compounds 5, 7, 9 and 13 were also tested for their ability to cleave DNA at a ratio of 2.5:1 to copper (FIG. 23). Ratios of compound 3:copper as indicated, plus concentrations of copper in the absence of compound 3 were used in the DNA cleavage assay as described above.

## O=C(Cn1cc(-c2nc3c4cccnc4c4ncccc4c3[nH]2)c2ccccc21)N1CCCCC1 [Compound 47]
[1]
  IC50: 5 µg/mL

## Clc1ccc(-c2[nH]c3ccccc3c2-c2nc3c4cccnc4c4ncccc4c3[nH]2)cc1 [Compound 42]
[1]
  IC50: 0.31 µg/mL

## CC(C)c1ccc2[nH]c(C(C)(C)C)c(-c3nc4c5cccnc5c5ncccc5c4[nH]3)c2c1 [Compound 61]
[1]
  IC50: 0.4 µg/mL

## CC(C)c1[nH]c2ccccc2c1-c1nc2c3cccnc3c3ncccc3c2[nH]1 [Compound 79]
[1]
  IC50: 0.65 µg/mL

## Cc1ccc(F)c2c(-c3nc4c5cccnc5c5ncccc5c4[nH]3)c(C(C)(C)C)[nH]c12 [Compound 83]
[1]
  IC50: 0.1 µg/mL

## COc1ccc2c(c1)c(-c1nc3c4cccnc4c4ncccc4c3[nH]1)cn2C(C)C [Compound 54]
[1]
  IC50: 0.28 µg/mL

## Cn1c(N2CCOCC2)c(-c2nc3c4cccnc4c4ncccc4c3[nH]2)c2ccccc21 [Compound 59]
[1]
  IC50: 0.6 µg/mL

## CCc1ccc2[nH]c(C(C)(C)C)c(-c3nc4c5cccnc5c5ncccc5c4[nH]3)c2c1 [Compound 86]
[1]
  IC50: 0.47 µg/mL

## Cc1cc(Cl)cc2c(-c3nc4c5cccnc5c5ncccc5c4[nH]3)c(C(C)(C)C)[nH]c12 [Compound 84]
[1]
  IC50: 0.39 µg/mL

## Fc1ccc2[nH]cc(-c3nc4c5cccnc5c5ncccc5c4[nH]3)c2c1 [Compound 4]
[1]; Homo sapiens, read-out: IC50
  IC50: 3.5 µg/mL

## CC(C)(C)c1[nH]c2ccccc2c1-c1nc2c3cccnc3c3ncccc3c2[nH]1 [Compound 39]
[1]
  IC50: 0.45 µg/mL

## O=C(Cn1cc(-c2nc3c4cccnc4c4ncccc4c3[nH]2)c2ccccc21)N1CCCCCC1 [Compound 45]
[1]
  IC50: 7 µg/mL

## c1ccc2c(c1)c(-c1nc3c4cccnc4c4ncccc4c3[nH]1)cn2C1CCCC1 [Compound 53]
[1]
  IC50: 0.19 µg/mL

## Cc1ccc(Cl)c2c(-c3nc4c5cccnc5c5ncccc5c4[nH]3)c(C(C)(C)C)[nH]c12 [Compound 85]
[1]
  IC50: 0.24 µg/mL

## CC(C)(C)c1[nH]c2ccc(C#N)cc2c1-c1nc2c3cccnc3c3ncccc3c2[nH]1 [Compound 71]
[1]
  IC50: 3 µg/mL

## CC1CCN(C(=O)Cn2cc(-c3nc4c5cccnc5c5ncccc5c4[nH]3)c3ccccc32)CC1 [Compound 51]
[1]
  IC50: 5 µg/mL

## Cc1cccc2c(-c3nc4c5cccnc5c5ncccc5c4[nH]3)c(C(C)(C)C)[nH]c12 [Compound 62]
[1]
  IC50: <0.1 µg/mL

## Cn1c(-c2ccccc2)c(-c2nc3c4cccnc4c4ncccc4c3[nH]2)c2ccccc21 [Compound 18]
[1]
  IC50: 0.37 µg/mL

## Cc1[nH]c2ccc([N+](=O)[O-])cc2c1-c1nc2c3cccnc3c3ncccc3c2[nH]1 [Compound 38]
[1]
  IC50: 3.5 µg/mL

## CC(C)(C)c1[nH]c2c(F)cc(F)cc2c1-c1nc2c3cccnc3c3ncccc3c2[nH]1 [Compound 66]
[1]
  IC50: 0.4 µg/mL

## Cc1c(-c2nc3c4cccnc4c4ncccc4c3[nH]2)c2ccccc2n1CC(=O)N1CCCCCC1 [Compound 56]
[1]
  IC50: 5 µg/mL

## CC(C)(C)c1[nH]c2ccc(F)cc2c1-c1nc2c3cccnc3c3ncccc3c2[nH]1 [Compound 65]
[1]
  IC50: 0.35 µg/mL

## CC(C)c1[nH]c2ccc(F)cc2c1-c1nc2c3cccnc3c3ncccc3c2[nH]1 [Compound 82]
[1]
  IC50: 0.61 µg/mL

## c1ccc2c(-c3nc4c5cccnc5c5ncccc5c4[nH]3)c(C3CCCC3)[nH]c2c1 [Compound 81]
[1]
  IC50: 0.4 µg/mL

## Cc1ccccc1-c1[nH]c2ccc(C(C)(C)C)cc2c1-c1nc2c3cccnc3c3ncccc3c2[nH]1 [Compound 74]
[1]
  IC50: 0.18 µg/mL

## c1cnc2c(c1)ccc1cccnc12 [1,10-phenanthroline (OP), 1,10-phenanthroline, reference compound]
Supercoiled plasmid DNA; 25 μM compound, 10 μM CuSO4, 100 μM ascorbic acid, 37° C., 30 minutes
  cleavage of plasmid DNA: able to cleave plasmid DNA
Supercoiled plasmid DNA; absence of copper or reducing agent
  cleavage of plasmid DNA: Neither compound 3 nor OP was able to cleave DNA

## c1ccc2c(-c3nc4c5cccnc5c5ncccc5c4[nH]3)c(C34CC5CC(CC(C5)C3)C4)[nH]c2c1 [Compound 78]
[1]
  IC50: 0.38 µg/mL

## CC(C)(C)c1[nH]c2ccc(-c3ccccc3)cc2c1-c1nc2c3cccnc3c3ncccc3c2[nH]1 [Compound 68]
[1]
  IC50: 0.34 µg/mL

## Fc1ccc2[nH]c(C34CC5CC(CC(C5)C3)C4)c(-c3nc4c5cccnc5c5ncccc5c4[nH]3)c2c1 [Compound 72]
[1]
  IC50: 0.18 µg/mL

## CN(C)S(=O)(=O)c1ccc2[nH]c(Cl)c(-c3nc4c5cccnc5c5ncccc5c4[nH]3)c2c1 [Compound 76]
[1]
  IC50: >25 µg/mL

## COc1ccc2[nH]c(C)c(-c3nc4c5cccnc5c5ncccc5c4[nH]3)c2c1 [Compound 6]
[1]; Homo sapiens, read-out: IC50
  pIC50: 5.85
  IC50: 1.4 µg/mL

## CC(C)(C)c1ccc2[nH]c(C3CCCC3)c(-c3nc4c5cccnc5c5ncccc5c4[nH]3)c2c1 [Compound 73]
[1]
  IC50: 0.22 µg/mL

## Cc1[nH]c2ccc(O)cc2c1-c1nc2c3cccnc3c3ncccc3c2[nH]1 [Compound 8]
[1]; Homo sapiens, read-out: IC50
  IC50: > 25 µg/mL

## O=C(Cn1cc(-c2nc3c4cccnc4c4ncccc4c3[nH]2)c2ccccc21)N1CCOCC1 [Compound 44]
[1]
  IC50: >5-25<, μg/ml

## CC(C)(C)c1[nH]c2c(F)cccc2c1-c1nc2c3cccnc3c3ncccc3c2[nH]1 [Compound 88]
[1]
  IC50: 0.38 µg/mL

## c1ccc2c(-c3nc4c5cccnc5c5ncccc5c4[nH]3)c[nH]c2c1 [Compound 1]
[1]
  IC50: 2 µg/mL

## Cc1c(-c2nc3c4cccnc4c4ncccc4c3[nH]2)c2ccccc2n1CC(=O)N1CCCC1 [Compound 43]
[1]
  IC50: >5-25< μg/ml

## O=S(=O)(c1ccc2[nH]c(Cl)c(-c3nc4c5cccnc5c5ncccc5c4[nH]3)c2c1)N1CCOCC1 [Compound 75]
[1]
  IC50: >25 µg/mL

## O=C(Cn1cc(-c2nc3c4cccnc4c4ncccc4c3[nH]2)c2ccccc21)N1CCCC1 [Compound 46]
[1]
  IC50: >5-25< μg/ml

## CN1CCN(C(=O)Cn2cc(-c3nc4c5cccnc5c5ncccc5c4[nH]3)c3ccccc32)CC1 [Compound 58]
[1]
  IC50: >

## Cc1c(-c2nc3c4cccnc4c4ncccc4c3[nH]2)c2ccccc2n1CC(=O)N1CCCCC1 [Compound 57]
[1]
  IC50: 5 µg/mL

## Fc1ccc(-c2[nH]c3ccccc3c2-c2nc3c4cccnc4c4ncccc4c3[nH]2)cc1 [Compound 10]
[1]; Homo sapiens, read-out: IC50
  pIC50: 6.74
  IC50: 0.18 µg/mL

## O=C(Cn1cc(-c2nc3c4cccnc4c4ncccc4c3[nH]2)c2cc(Br)ccc21)N1CCCC1 [Compound 49]
[1]
  IC50: >5-25< μg/ml

## CC1CCCC(C)N1C(=O)Cn1cc(-c2nc3c4cccnc4c4ncccc4c3[nH]2)c2ccccc21 (centres unmarked) [Compound 50]
[1]
  IC50: 2.3 µg/mL

## CC(C)n1cc(-c2nc3c4cccnc4c4ncccc4c3[nH]2)c2ccccc21 [Compound 52]
[1]
  IC50: 0.19 µg/mL

## CC(C)(C)c1[nH]c2ccc(Br)cc2c1-c1nc2c3cccnc3c3ncccc3c2[nH]1 [Compound 87]
[1]
  IC50: 0.42 µg/mL

## Cc1ccc(C)c2c(-c3nc4c5cccnc5c5ncccc5c4[nH]3)c(C34CC5CC(CC(C5)C3)C4)[nH]c12 [Compound 70]
[1]
  IC50: 0.35 µg/mL

## c1ccc2c(-c3nc4c5cccnc5c5ncccc5c4[nH]3)c(C3CCCCC3)[nH]c2c1 [Compound 80]
[1]
  IC50: 0.42 µg/mL

## Cc1c(-c2nc3c4cccnc4c4ncccc4c3[nH]2)c2cc(F)ccc2n1Cc1ccccc1 [Compound 77]
[1]
  IC50: 0.24 µg/mL

## Cc1c(-c2nc3c4cccnc4c4ncccc4c3[nH]2)c2ccccc2n1CC(=O)N1CCC(C)CC1 [Compound 55]
[1]
  IC50: 2.4 µg/mL
